Experiments:
[1] = tested on: Monocotyledonous and dicotyledonous test plants; test: Herbicidal action before emergence of the plants (pre-emergence action), greenhouse pot test, 9-level rating after 4 weeks; format: in vivo; design: key: 9-level scale: 1 = complete damage, 9 = no effect; details: 250 g/ha, rated after 4 weeks, 9-level scale
Protocol: Herbicidal Action Before Emergence of the Plants (Pre-Emergence Action)
(§1) Monocotyledonous and dicotyledonous test plants are sown in standard soil in pots. Immediately after sowing, the test substances are sprayed on at an optimum dosage (500 l of water/ha) as an aqueous suspension (prepared from a wettable powder (example F3, b) according to WO 97/34485) or emulsion (prepared from an emulsion concentrate (example F1, c) according to WO 97/34485). The test plants are then grown under optimum conditions in a greenhouse.
After a test period of 4 weeks, the test is evaluated using a 9-level scale of ratings (1=complete damage, 9=no effect). Ratings of 1 to 4 (in particular 1 to 3) mean good to very good herbicidal action.

[2] = tested on: Monocotyledonous and dicotyledonous test plants; test: Post-emergence herbicidal action, greenhouse pot test, sprayed at the 2- to 3-leaf stage, 9-level rating after 2 to 3 weeks; format: in vivo; design: key: 9-level scale: 1 = complete damage, 9 = no effect; details: 250 g/ha, rated after 2 to 3 weeks, 9-level scale
Protocol: Post-Emergence Herbicidal Action
as §1, with “grown” for “sown”, “At the 2- to 3-leaf stage of the test plants,” for “Immediately after sowing,”, “sprayed” for “sprayed on”, “at” for “at an”, “grown further” for “grown”
After a test period of 2 to 3 weeks, the test is evaluated using a 9-level scale of rating (1=complete damage, 9=no effect). Ratings of 1 to 4 (in particular 1 to 3) mean good to very good herbicidal action.

Row | SMILES | Pre-emergence action rating, Abutilon [1] | Pre-emergence action rating, Amaranthus [1] | Pre-emergence action rating, Chenop. [1] | Pre-emergence action rating, Digitaria [1] | Pre-emergence action rating, Echino. [1] | Pre-emergence action rating, Panicum [1] | Post-emergence action rating, Abutilon [2] | Post-emergence action rating, Amaranth [2] | Post-emergence action rating, Chenop. [2] | Post-emergence action rating, Digitaria [2] | Post-emergence action rating, Echino. [2] | Post-emergence action rating, Ipopur. [2] | Post-emergence action rating, Panicum [2] | Post-emergence action rating, Xanth. [2]
1 | COCc1nc(C(F)(F)F)ccc1C(=O)c1c(C)nn(C)c1O [A1-C2] | 4 | 3 | 1 | 3 | 3 | 6 | 3 | 2 | 4 | 8 | 4 | 3 | 7 | 4
2 | COCc1nc(C(F)(F)F)ccc1C(=O)c1cnn(C)c1O [A1-C5] | 2 | 2 | 1 | 2 | 1 | 2 | 2 | 2 | 1 | 2 | 2 | 2 | 4 | 4
3 | CCOCc1nc(C(F)(F)F)ccc1C(=O)c1cnn(C)c1O [A2-C5] | 1 | 1 | 1 | 2 | 2 | 1 | 2 | 1 | 1 | 2 | 2 | 2 | 1 | 2
4 | CC(C)OCc1nc(C(F)(F)F)ccc1C(=O)c1cnn(C)c1O [A3-C5] | 1 | 1 |  | 2 | 2 | 1 | 3 | 3 | 1 | 4 | 3 | 3 | 3 | 3
5 | COCOCc1nc(C(F)(F)F)ccc1C(=O)C1=C(O)C2CCC(C2)C1=O (centres unmarked) [A8-B52] | 1 | 1 |  | 1 | 1 | 1 | 1 | 1 | 1 | 1 | 1 | 1 | 1 | 2
6 | COCCOCc1nc(C(F)(F)F)ccc1C(=O)C1=C(O)CCCC1=O [A10-B1] | 1 | 1 | 1 | 2 | 2 | 2 | 2 | 2 | 1 | 2 | 2 | 2 | 2 | 2
7 | COCCOCc1nc(C(F)(F)F)ccc1C(=O)C1=C(O)CCC(C)(C)C1=O [A10-B3] | 1 | 1 | 1 | 1 | 1 | 1 | 1 | 1 | 1 | 1 | 3 | 2 | 1 | 1
8 | COCCOCc1nc(C(F)(F)F)ccc1C(=O)C1=C(O)C(C)(C)CC(C)C1=O (centres unmarked) [A10-B4] | 3 | 1 | 1 | 3 | 1 | 2 | 1 | 2 | 1 | 1 | 2 | 1 | 1 | 2
9 | CCOC(=O)C1(C)CCC(=O)C(C(=O)c2ccc(C(F)(F)F)nc2COCCOC)=C1O (centres unmarked) [A10-B14] | 1 | 1 | 1 | 6 | 3 | 3 | 2 | 2 | 1 | 2 | 3 | 2 | 2 | 2
10 | COCCOCc1nc(C(F)(F)F)ccc1C(=O)C1=C(O)CCC2(CC2)C1=O [A10-B17] | 4 | 2 | 1 | 1 | 1 | 1 | 2 | 2 | 1 | 1 | 2 | 2 | 2 | 2
11 | COCCOCc1nc(C(F)(F)F)ccc1C(=O)C1=C(O)C(C)(C)ON(C)C1=O [A10-B25] | 1 | 1 | 1 | 1 | 2 | 1 | 3 | 2 | 1 | 4 | 4 | 3 | 3 | 3
